These results are taken from patent US11226337B2, “Chemoproteomic profiling of protein electrophilic and oxidative post-translational modifications” (Zenagem, LLC, priority 2017, dated 2022).

Test [1] deals with T1, GLB1 Betagalactosidase (P16278) (Homo sapiens, UniProt P16278).
T1 construct: shared by both the endogenous and recombinant forms of these proteins; endogenous in cells; host or cells: HEK293T and MDA-MB-231
T1 sequence (P16278 29-677): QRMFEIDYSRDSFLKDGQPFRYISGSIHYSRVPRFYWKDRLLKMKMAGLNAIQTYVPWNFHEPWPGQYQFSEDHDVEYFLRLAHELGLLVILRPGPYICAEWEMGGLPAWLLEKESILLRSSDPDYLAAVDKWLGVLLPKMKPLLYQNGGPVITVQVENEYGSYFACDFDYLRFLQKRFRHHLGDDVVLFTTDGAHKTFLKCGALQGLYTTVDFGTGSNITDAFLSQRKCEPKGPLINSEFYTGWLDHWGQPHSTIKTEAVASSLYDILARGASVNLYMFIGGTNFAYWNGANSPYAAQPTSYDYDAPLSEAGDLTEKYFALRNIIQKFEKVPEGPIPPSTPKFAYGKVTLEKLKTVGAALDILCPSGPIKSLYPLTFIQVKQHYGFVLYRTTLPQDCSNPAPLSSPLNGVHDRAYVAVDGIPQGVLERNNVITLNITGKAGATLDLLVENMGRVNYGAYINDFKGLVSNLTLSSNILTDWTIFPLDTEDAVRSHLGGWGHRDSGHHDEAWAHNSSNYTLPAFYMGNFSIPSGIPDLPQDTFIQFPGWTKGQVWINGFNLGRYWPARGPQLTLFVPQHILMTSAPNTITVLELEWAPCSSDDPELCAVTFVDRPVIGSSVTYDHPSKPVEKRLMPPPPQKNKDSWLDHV
The test is described as follows: SILAC RP-ABPP. Format: cell-based. Particulars: SILAC H/L. The protocol: (§1) For MS-based experiments, labelling was performed in a similar manner as described above in Example 2, maintaining the same concentrations of probes. Modifications to this protocol included using isotopically ‘light’ and ‘heavy’ SILAC cells that were also grown to near complete confluence prior to treatment. Isotopically light cells were treated with the non-clickable hydrazine probe (at the same concentration as the probe in ‘enrichment’ experiments) or the probe in the presence of 10-fold excess non-clickable hydrazine probe as a competitor (in ‘competition’ experiments). Isotopically heavy cells were treated with the probe for both types of experiments. These treatments were performed in non-SILAC media. Following treatments, cells were washed with cold PBS to remove the probe-containing media, harvested by scraping, collected by centrifugation (1,400 g, 3 min, 4° C.), washed again by resuspension in cold PBS and frozen as pellets at −80° C. until use.
(§2) The fractionated equimolar mixture of heavy and light soluble proteomes (1-1.5 mg) was diluted to 1 mL in PBS. Click reactions were scaled accordingly (except for biotin-azide) to maintain final concentrations of 0.1 mM TBTA, 1 mM CuSO4, 100 μM biotin-azide (10 mM in DMSO) and 1 mM TCEP. The mixture was vortexed and placed on a rotator at ambient temperature for 1 hour. Sequential addition of and mixture with pre-chilled methanol (MeOH, 2 mL), chloroform (CHCl3, 0.5 mL) and PBS (1 mL) on ice quenched the reaction. The precipitated proteome was centrifuged (5,000 g, 10 min, 4° C.) to fractionate the protein interphase from the organic and aqueous solvent layers. The protein pellet was washed with cold 1:1 MeOH:CHCl3 (3×1 mL), mildly sonicated in cold 4:1 MeOH:CHCl3 (2.5 mL) and pelleted once more by centrifugation (5,000 g, 10 min, 4° C.) to ensure click reagents were efficiently removed.
(§3) Heavy and light parent ion chromatograms associated with successfully identified peptides were extracted and compared using CIMAGE software as previously described^69. At least one ion of a co-eluting heavy-light pair must be accurately identified from a fragmentation event that occurred within the retention time window (±10 min) of parent ion elution. To ensure that the correct pair of peaks is quantified, chromatograms are extracted within a 10 ppm error tolerance of the predicted m/z, the signal-to-noise ratio must be >2.5 and the ‘co-elution correlation score’ and ‘envelope correlation score’ must have R^2 values ≥0.8. In addition, peptides detected as ‘singletons,’ where only the heavy ion of a peptide pair was identified, but for which passed all other filtering parameters, are given a default assigned ratio of ‘20,’ which is defined as any measured ratio that is ≥20.
(§4) To further eliminate false positives and any stochastic variability in the data, protein ratios were then determined by the median peptide ratio derived from three or more unique quantified peptides. Protein ratios that complied with these criteria from a single experiment were then averaged with ratios acquired from ≥3 replicates to provide final values for each type of experiment in both cell lines with both probes. […] Most importantly, there are no robustly measured ratios for proteins identified as probe 1 targets that had measured ratios of ˜1 with probe 2. Probe targets in HEK293T and MDA-MB-231 cells represent data combined from ≥3 independent biological replicates with each cell type performed with several independent batches of synthesized probes over a period of almost two years. […]

Test [2] deals with T2, MAN2B1 Lysosomal alphamannosidase (O00754) (Homo sapiens, UniProt O00754).
T2 construct: shared by both the endogenous and recombinant forms of these proteins; endogenous in cells; host or cells: HEK293T and MDA-MB-231
T2 sequence (O00754 50-1011): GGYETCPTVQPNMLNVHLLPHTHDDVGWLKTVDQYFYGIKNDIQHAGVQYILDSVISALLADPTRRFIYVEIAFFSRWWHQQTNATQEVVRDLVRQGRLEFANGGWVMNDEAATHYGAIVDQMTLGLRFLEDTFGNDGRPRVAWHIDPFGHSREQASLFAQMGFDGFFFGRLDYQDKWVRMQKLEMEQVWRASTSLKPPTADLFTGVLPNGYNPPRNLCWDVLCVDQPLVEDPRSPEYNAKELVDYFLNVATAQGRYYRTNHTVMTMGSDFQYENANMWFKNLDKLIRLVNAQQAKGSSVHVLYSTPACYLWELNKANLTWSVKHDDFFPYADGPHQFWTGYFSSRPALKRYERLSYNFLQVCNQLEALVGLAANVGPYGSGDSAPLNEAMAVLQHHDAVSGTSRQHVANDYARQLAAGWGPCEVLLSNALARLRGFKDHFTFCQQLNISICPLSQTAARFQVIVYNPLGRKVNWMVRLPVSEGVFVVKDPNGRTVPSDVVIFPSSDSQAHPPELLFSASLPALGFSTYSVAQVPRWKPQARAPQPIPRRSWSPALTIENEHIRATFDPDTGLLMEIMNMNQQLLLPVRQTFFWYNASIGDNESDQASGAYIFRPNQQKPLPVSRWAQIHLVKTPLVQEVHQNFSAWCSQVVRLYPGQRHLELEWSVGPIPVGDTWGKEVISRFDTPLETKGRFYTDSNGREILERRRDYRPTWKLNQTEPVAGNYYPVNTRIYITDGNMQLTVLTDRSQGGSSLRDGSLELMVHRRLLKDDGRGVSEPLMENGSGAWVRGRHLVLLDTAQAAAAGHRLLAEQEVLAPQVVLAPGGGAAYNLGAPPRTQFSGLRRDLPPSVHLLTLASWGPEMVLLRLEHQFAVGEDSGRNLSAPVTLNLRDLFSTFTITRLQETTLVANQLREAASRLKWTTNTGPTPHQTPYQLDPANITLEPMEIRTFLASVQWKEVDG
The test is described as follows: SILAC RP-ABPP. It counts as cell-based. Particulars: SILAC H/L, MDA-MB-231. The protocol:
as §1, §2, §3, §4

On to `C#CCNN.Cl` [probe 1, prop-2-yn-1-ylhydrazine hydrochloride], for which the enrichment ratioavg was 12 in test [1] (probe 1 3 mM 0.5 h vs probe 3, HEK293T) and 20 in test [2] (probe 1 3 mM 0.5 h vs probe 3). Further, the competition ratioavg in test [1] (probe 1 vs probe 1+10x probe 3, HEK293T) came out at 3; in test [2] (probe 1 vs probe 1+10x probe 3), 8.
For the compound `C#CCCNC(=O)c1ccc(NN)cc1.Cl` [probe 2, N-(but-3-yn-1-yl)-4-hydrazinylbenzamide hydrochloride], the enrichment ratioavg in test [1] (probe 2 1 mM 0.5 h vs probe 4, MDA-MB-231) worked out at 6; in test [2] (probe 2 1 mM 0.5 h vs probe 4) it was 20. Also, the competition ratioavg in test [1] (probe 2 vs probe 2+10x probe 4, MDA-MB-231) was 2; in test [2] (probe 2 vs probe 2+10x probe 4), 4.
